We go through eleven compounds from ChEMBL document CHEMBL1131148, “Synthesis and modeling studies of a potent conformationally rigid muscarinic agonist: 1-azabicyclo[2.2.1]heptanespirofuranone” (J Med Chem, 1998).

By Ki is commonly meant a measure of affinity in units of concentration, obtained from inhibition or displacement.

In experiment [1] the target is Muscarinic acetylcholine receptor. Nature of the experiment: Binding affinity against Muscarinic acetylcholine receptor using [3H]-OXO-M as the radioligand. In kind it is protein assay, Rattus norvegicus.
The species named for the next experiment is Rattus norvegicus. Nature of the experiment: Stimulation of phosphatidyl inositol(PI) hydrolysis as compared to that of carbachol, was determined in rat hippocampal slices. In kind it is functional, Hippocampus.

In turn, `C[C@H]1OCC2(CN3CCC2C3)O1` (stereo not given in full) yielded a Ki in experiment [1] of 14 nM. The Intrinsic activity in the experiment filed under Rattus norvegicus was determined as 75%.

Turning to `CCC[C@H]1O[C@@]2(CC1=O)CN1CCC2C1` (stereo not given in full), in experiment [1], the Ki came to 2 nM. The Intrinsic activity in the experiment filed under Rattus norvegicus came out at 0%. The corresponding values for `CC[C@H]1O[C@@]2(CC1=O)CN1CCC2C1` (stereo not given in full) are 3.7 nM and 39%. For the compound `CC[C@@H]1O[C@@]2(CC1=O)CN1CCC2C1` (stereo not given in full), in experiment [1], the Ki is 0.4 nM. The Intrinsic activity in the experiment filed under Rattus norvegicus amounted to 47%. In the case of `CN1O[C@@]2(CC1=O)CN1CCC2C1` (stereo not given in full), the inhibition constant (Ki) in experiment [1] is 4 nM. Also, the Intrinsic activity in the experiment listed under Rattus norvegicus is on record as 22.6%. On to `C[C@@H]1O[C@@]2(CC1=O)CN1CCC2C1` (stereo not given in full), for which, in experiment [1], the Ki was 0.8 nM. In the experiment filed under Rattus norvegicus, the Intrinsic activity was 81%.

For `CCC[C@@H]1O[C@@]2(CC1=O)CN1CCC2C1` (stereo not given in full), in experiment [1], the Ki came to 2 nM. Also, the Intrinsic activity in the experiment filed under Rattus norvegicus is reported as 0%. The compound `CC1OC2(CCN(C)CC2)CC1=O` (stereo not given) registered a Ki in experiment [1] of 6.7 nM. Besides, the Intrinsic activity in the experiment filed under Rattus norvegicus is 51%. With `CC1O[C@@]2(CC1=O)CN1CCC2CC1` (stereo not given in full), in the experiment filed under Rattus norvegicus, the Intrinsic activity came out at 9%. Compound `Cc1noc(C2CN3CCC2C3)n1` (stereo not given) had a Ki in experiment [1] of 0.2 nM. In addition, the Intrinsic activity in the experiment filed under Rattus norvegicus is reported as 106%. Consider `C[N+](C)(C)CCOC(N)=O.[Cl-]` [CARBACHOL], for which, in the experiment listed under Rattus norvegicus, the Intrinsic activity is listed as 100%.
